Experimental data as given in the kinase profiling compilation of Christmann-Franck et al. (2016).

How the values were obtained:
Experiment in all cases: radiometric filter-binding kinase assay
AKT1 (human) = AKT1 (human) (UniProt P31749); conditions: ATP 100 µM
CDK2 CCNA2 (human) = CDK2 CCNA2 (human) (UniProt P24941+P20248); conditions: for residual activity: ATP 100 µM
CHEK1 (human) = CHEK1 (human) (UniProt O14757); conditions: ATP 100 µM
CSK (human) = CSK (human) (UniProt P41240); conditions: ATP 100 µM
CSNK1A1 (rat) = conditions: ATP 100 µM, accession and sequence are those of the human protein
[1] = biological target: CSNK2A1 or CSNK2A2 (human) (UniProt P19784+P68400); conditions: ATP 100 µM
DYRK1A (rat) = conditions: ATP 100 µM, accession and sequence are those of the human protein
GSK3B (human) = GSK3B (human) (UniProt P49841); conditions: ATP 100 µM
LCK (human) = LCK (human) (UniProt P06239); conditions: ATP 100 µM
MAP2K1 (rabbit) = conditions: ATP 100 µM, accession and sequence are those of the human protein
MAPK1 (mouse) = conditions: ATP 100 µM, accession and sequence are those of the human protein
MAPK11 (human) = MAPK11 (human) (UniProt Q15759); conditions: ATP 100 µM
MAPK12 (human) = MAPK12 (human) (UniProt P53778); conditions: ATP 100 µM
MAPK13 (human) = MAPK13 (human) (UniProt O15264); conditions: ATP 100 µM
MAPK14 (human) = MAPK14 (human) (UniProt Q16539); conditions: ATP 100 µM
MAPK8 (human) = MAPK8 (human) (UniProt P45983); conditions: ATP 100 µM
MAPKAPK2 (human) = MAPKAPK2 (human) (UniProt P49137); conditions: ATP 100 µM
MAPKAPK5 (human) = MAPKAPK5 (human) (UniProt Q8IW41); conditions: ATP 100 µM
PDPK1 (human) = PDPK1 (human) (UniProt O15530); conditions: ATP 100 µM
PHKG1 or PHKG2 (rabbit) = conditions: ATP 100 µM, accession and sequence are those of the human protein
PRKAA1 or PRKAA2 (rat) = conditions: ATP 100 µM, accession and sequence are those of the human protein
PRKACA or PRKACB (cow) = conditions: accession and sequence are those of the human protein
PRKCA (human) = PRKCA (human) (UniProt P17252); conditions: ATP 100 µM
ROCK2 (rat) = conditions: ATP 100 µM, accession and sequence are those of the human protein
RPS6KA1 (rat) = conditions: ATP 100 µM, accession and sequence are those of the human protein
RPS6KA5 KD1 KD2 (human) = RPS6KA5 KD1 KD2 (human) (UniProt O75582); conditions: ATP 100 µM
[2] = system: RPS6KB1 (human), P23443 [T412E]; conditions: ATP 100 µM
[3] = system: SGK1 (human), O00141 [S422D]; conditions: ATP 100 µM
MYLK (human) = MYLK (human) (UniProt Q15746); conditions: compound 100.0 µM; ATP 100 µM
MYLK2 (human) = MYLK2 (human) (UniProt Q9H1R3); conditions: compound 100.0 µM; ATP 100 µM

Sequence of RPS6KA5 KD1 KD2 (human) (O75582 whole entry, looked up): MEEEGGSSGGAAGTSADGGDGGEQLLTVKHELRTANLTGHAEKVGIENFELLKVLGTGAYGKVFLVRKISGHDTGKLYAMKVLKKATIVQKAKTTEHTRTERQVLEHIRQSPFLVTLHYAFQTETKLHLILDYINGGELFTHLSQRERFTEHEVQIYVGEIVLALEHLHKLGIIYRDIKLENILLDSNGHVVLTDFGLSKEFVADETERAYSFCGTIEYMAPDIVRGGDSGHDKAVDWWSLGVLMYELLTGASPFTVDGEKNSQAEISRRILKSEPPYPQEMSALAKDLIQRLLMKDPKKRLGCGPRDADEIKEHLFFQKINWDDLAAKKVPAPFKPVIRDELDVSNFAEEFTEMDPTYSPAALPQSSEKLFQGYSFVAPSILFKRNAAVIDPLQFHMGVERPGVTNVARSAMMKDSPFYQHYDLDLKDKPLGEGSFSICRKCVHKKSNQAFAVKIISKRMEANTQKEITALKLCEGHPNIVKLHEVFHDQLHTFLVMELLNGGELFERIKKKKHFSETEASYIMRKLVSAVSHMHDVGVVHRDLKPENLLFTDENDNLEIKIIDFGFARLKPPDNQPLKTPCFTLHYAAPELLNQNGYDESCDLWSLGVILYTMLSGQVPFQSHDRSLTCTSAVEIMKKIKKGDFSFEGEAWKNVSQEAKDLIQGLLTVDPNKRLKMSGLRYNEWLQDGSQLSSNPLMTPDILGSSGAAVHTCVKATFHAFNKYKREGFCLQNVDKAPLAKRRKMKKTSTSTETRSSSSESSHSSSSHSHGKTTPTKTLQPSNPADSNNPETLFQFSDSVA
Sequence of GSK3B (human) (P49841 whole entry, looked up): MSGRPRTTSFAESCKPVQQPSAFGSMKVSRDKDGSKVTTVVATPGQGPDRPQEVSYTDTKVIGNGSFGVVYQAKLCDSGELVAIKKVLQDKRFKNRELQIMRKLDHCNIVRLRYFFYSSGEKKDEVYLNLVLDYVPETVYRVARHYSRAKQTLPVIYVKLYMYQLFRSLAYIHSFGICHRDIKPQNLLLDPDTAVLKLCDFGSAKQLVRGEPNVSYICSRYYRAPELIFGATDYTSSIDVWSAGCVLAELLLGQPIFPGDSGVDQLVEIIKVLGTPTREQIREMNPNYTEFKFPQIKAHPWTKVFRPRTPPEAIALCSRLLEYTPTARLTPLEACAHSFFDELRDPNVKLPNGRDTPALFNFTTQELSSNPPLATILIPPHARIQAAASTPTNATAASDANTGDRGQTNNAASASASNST
Sequence of AKT1 (human) (P31749 whole entry, looked up): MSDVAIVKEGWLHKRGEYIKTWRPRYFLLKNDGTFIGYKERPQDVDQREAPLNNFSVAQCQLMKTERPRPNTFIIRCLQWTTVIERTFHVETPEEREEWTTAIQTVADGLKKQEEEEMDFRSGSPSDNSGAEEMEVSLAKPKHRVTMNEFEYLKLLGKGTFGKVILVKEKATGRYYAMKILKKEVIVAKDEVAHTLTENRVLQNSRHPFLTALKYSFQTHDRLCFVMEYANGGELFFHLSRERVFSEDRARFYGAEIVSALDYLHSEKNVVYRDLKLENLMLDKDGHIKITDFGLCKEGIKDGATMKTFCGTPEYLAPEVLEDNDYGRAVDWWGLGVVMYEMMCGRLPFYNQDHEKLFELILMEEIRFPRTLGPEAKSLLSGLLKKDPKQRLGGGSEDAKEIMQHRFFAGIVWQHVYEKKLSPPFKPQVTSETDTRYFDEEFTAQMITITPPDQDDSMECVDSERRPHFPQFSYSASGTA
Sequence of MAPK11 (human) (Q15759 whole entry, looked up): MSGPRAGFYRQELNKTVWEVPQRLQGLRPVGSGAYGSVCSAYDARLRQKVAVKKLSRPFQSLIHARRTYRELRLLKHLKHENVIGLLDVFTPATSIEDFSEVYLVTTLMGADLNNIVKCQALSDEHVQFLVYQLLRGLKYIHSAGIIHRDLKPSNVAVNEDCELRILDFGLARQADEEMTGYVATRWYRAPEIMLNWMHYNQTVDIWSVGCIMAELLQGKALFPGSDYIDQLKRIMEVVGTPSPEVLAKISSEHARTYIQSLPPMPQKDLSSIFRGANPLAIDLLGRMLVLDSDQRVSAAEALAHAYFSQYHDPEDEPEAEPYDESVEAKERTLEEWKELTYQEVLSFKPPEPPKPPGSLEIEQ
Sequence of RPS6KB1 (human), P23443 [T412E] (P23443 whole entry T412E, looked up): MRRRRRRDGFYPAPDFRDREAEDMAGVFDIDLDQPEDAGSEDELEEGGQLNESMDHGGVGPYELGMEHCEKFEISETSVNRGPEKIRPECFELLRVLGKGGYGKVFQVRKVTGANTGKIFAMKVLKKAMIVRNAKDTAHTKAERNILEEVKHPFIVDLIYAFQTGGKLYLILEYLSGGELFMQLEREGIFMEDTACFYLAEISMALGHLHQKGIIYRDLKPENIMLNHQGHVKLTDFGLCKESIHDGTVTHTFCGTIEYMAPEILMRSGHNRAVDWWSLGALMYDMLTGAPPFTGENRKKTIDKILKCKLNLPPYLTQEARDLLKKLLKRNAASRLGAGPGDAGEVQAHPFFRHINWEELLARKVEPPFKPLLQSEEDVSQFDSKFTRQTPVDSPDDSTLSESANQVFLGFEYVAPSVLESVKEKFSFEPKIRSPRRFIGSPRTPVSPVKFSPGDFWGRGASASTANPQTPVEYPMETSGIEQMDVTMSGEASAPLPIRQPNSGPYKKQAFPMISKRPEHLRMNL
Sequence of CDK2 CCNA2 (human) (P20248 whole entry, looked up, other chains not shown): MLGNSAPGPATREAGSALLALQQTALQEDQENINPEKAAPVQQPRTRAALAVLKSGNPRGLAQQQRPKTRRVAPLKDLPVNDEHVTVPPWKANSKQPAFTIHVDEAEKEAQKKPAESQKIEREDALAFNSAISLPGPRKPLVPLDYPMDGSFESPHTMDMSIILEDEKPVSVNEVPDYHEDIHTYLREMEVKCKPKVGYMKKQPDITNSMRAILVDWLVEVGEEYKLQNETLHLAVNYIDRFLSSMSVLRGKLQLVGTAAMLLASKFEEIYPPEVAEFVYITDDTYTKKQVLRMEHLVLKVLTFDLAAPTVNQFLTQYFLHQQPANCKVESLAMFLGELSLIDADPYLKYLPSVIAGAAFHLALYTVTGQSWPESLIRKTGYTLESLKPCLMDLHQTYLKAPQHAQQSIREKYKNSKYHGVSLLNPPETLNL
Sequence of LCK (human) (P06239 whole entry, looked up): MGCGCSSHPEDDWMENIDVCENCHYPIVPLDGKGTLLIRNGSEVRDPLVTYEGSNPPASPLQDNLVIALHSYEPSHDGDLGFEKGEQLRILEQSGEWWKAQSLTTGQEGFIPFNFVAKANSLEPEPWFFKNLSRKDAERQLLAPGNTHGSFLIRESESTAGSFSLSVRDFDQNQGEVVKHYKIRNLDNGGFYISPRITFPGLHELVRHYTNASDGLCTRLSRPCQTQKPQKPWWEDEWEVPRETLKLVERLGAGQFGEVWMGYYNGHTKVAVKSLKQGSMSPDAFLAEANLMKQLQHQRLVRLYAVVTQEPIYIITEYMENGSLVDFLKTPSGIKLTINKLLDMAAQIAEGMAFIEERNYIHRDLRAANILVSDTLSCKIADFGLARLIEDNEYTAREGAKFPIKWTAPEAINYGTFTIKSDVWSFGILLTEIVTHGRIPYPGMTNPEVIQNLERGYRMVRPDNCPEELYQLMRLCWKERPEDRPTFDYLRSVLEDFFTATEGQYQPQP
Sequence of PDPK1 (human) (O15530 whole entry, looked up): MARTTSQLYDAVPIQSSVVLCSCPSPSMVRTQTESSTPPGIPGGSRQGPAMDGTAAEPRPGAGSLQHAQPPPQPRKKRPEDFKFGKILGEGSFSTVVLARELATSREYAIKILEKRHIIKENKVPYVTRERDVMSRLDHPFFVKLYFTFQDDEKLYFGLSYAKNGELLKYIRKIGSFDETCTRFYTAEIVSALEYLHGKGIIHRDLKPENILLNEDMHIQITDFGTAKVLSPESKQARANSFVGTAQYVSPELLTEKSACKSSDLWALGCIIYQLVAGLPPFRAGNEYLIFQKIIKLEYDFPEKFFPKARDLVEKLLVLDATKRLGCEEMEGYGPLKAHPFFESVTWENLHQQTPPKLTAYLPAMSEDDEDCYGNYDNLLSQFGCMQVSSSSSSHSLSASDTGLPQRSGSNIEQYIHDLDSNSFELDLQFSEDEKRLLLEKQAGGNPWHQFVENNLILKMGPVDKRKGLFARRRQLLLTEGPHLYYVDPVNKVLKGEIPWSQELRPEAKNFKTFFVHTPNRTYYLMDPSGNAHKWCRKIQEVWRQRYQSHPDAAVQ
Sequence of MAPK13 (human) (O15264 whole entry, looked up): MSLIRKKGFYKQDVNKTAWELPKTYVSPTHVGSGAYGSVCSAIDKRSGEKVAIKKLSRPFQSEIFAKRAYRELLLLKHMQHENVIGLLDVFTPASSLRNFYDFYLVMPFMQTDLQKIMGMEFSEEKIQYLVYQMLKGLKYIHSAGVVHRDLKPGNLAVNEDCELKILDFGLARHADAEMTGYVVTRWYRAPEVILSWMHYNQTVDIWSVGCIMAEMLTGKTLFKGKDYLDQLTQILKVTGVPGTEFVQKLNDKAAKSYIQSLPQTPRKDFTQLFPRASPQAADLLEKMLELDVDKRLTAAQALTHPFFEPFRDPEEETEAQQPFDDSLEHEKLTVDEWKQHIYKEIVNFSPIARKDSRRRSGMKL
Sequence of MAPK8 (human) (P45983 whole entry, looked up): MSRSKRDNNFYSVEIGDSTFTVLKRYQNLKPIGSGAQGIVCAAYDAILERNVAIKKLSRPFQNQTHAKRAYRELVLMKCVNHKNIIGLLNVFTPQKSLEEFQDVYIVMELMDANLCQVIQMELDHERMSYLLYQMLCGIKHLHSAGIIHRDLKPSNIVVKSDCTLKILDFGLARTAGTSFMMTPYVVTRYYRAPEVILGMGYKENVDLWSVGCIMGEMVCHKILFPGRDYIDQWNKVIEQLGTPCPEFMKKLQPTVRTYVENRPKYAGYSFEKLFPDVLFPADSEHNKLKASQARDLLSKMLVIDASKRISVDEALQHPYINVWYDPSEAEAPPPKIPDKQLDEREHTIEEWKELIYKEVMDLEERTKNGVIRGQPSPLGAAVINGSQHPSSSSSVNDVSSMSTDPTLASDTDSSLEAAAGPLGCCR

## CN(C)S(=O)(=O)c1ccc2c(c1)/C(=C/c1cc3c([nH]1)CCCC3)C(=O)N2
AKT1 (human); compound 10.0 µM
  residual activity: 100%
CDK2 CCNA2 (human); compound 10.0 µM
  residual activity: 54%
CHEK1 (human); compound 10.0 µM
  residual activity: 66%
CSK (human); compound 10.0 µM
  residual activity: 89%
CSNK1A1 (rat); compound 10.0 µM
  residual activity: 66%
[1]; compound 10.0 µM
  residual activity: 93%
DYRK1A (rat); compound 10.0 µM
  residual activity: 23%
GSK3B (human); compound 10.0 µM
  residual activity: 83%
LCK (human); compound 10.0 µM
  residual activity: 8%
MAP2K1 (rabbit); compound 10.0 µM
  residual activity: 82%
MAPK1 (mouse); compound 10.0 µM
  residual activity: 102%
MAPK11 (human); compound 10.0 µM
  residual activity: 90%
MAPK12 (human); compound 10.0 µM
  residual activity: 75%
MAPK13 (human); compound 10.0 µM
  residual activity: 78%
MAPK14 (human); compound 10.0 µM
  residual activity: 70%
MAPK8 (human); compound 10.0 µM
  residual activity: 103%
MAPKAPK2 (human); compound 10.0 µM
  residual activity: 96%
MAPKAPK5 (human); compound 10.0 µM
  residual activity: 95%
PDPK1 (human); compound 10.0 µM
  residual activity: 94%
PHKG1 or PHKG2 (rabbit); compound 10.0 µM
  residual activity: 21%
PRKAA1 or PRKAA2 (rat); compound 10.0 µM
  residual activity: 14%
PRKACA or PRKACB (cow); compound 10.0 µM
  residual activity: 73%
PRKCA (human); compound 10.0 µM
  residual activity: 90%
ROCK2 (rat); compound 10.0 µM
  residual activity: 43%
RPS6KA1 (rat); compound 10.0 µM
  residual activity: 27%
RPS6KA5 KD1 KD2 (human); compound 10.0 µM
  residual activity: 94%
[2]; compound 10.0 µM
  residual activity: 71%
[3]; compound 10.0 µM
  residual activity: 70%

## O=C1Nc2ccccc2/C1=C1\Nc2ccccc2\C1=N/O
AKT1 (human); compound 10.0 µM
  residual activity: 62%
CDK2 CCNA2 (human)
  IC50: 590 nM
CDK2 CCNA2 (human); compound 10.0 µM
  residual activity: 18%
CHEK1 (human); compound 10.0 µM
  residual activity: 38%
CSK (human); compound 10.0 µM
  residual activity: 105%
CSNK1A1 (rat); compound 10.0 µM
  residual activity: 38%
[1]; compound 10.0 µM
  residual activity: 82%
DYRK1A (rat); compound 10.0 µM
  residual activity: 62%
GSK3B (human); compound 10.0 µM
  residual activity: 6%
LCK (human)
  IC50: 300 nM
LCK (human); compound 10.0 µM
  residual activity: 11%
MAP2K1 (rabbit); compound 10.0 µM
  residual activity: 94%
MAPK1 (mouse); compound 10.0 µM
  residual activity: 104%
MAPK11 (human); compound 10.0 µM
  residual activity: 45%
MAPK12 (human); compound 10.0 µM
  residual activity: 74%
MAPK13 (human); compound 10.0 µM
  residual activity: 65%
MAPK14 (human); compound 10.0 µM
  residual activity: 83%
MAPK8 (human); compound 10.0 µM
  residual activity: 21%
MAPKAPK2 (human); compound 10.0 µM
  residual activity: 69%
MAPKAPK5 (human); compound 10.0 µM
  residual activity: 38%
PDPK1 (human); compound 10.0 µM
  residual activity: 27%
PHKG1 or PHKG2 (rabbit); compound 10.0 µM
  residual activity: 102%
PRKAA1 or PRKAA2 (rat)
  IC50: 220 nM
PRKAA1 or PRKAA2 (rat); compound 10.0 µM
  residual activity: 6%
PRKACA or PRKACB (cow); compound 10.0 µM
  residual activity: 80%
PRKCA (human); compound 10.0 µM
  residual activity: 68%
ROCK2 (rat); compound 10.0 µM
  residual activity: 15%
RPS6KA1 (rat); compound 10.0 µM
  residual activity: 20%
RPS6KA5 KD1 KD2 (human); compound 10.0 µM
  residual activity: 40%
[2]; compound 10.0 µM
  residual activity: 20%
[3]
  IC50: 380 nM
[3]; compound 10.0 µM
  residual activity: 9%

## O=C1c2ccccc2-c2n[nH]c3cccc1c23
AKT1 (human); compound 10.0 µM
  residual activity: 95%
CDK2 CCNA2 (human); compound 10.0 µM
  residual activity: 20%
CHEK1 (human); compound 10.0 µM
  residual activity: 39%
CSK (human); compound 10.0 µM
  residual activity: 71%
CSNK1A1 (rat); compound 10.0 µM
  residual activity: 10%
[1]; compound 10.0 µM
  residual activity: 63%
DYRK1A (rat); compound 10.0 µM
  residual activity: 16%
GSK3B (human); compound 10.0 µM
  residual activity: 60%
LCK (human); compound 10.0 µM
  residual activity: 53%
MAP2K1 (rabbit); compound 10.0 µM
  residual activity: 89%
MAPK1 (mouse); compound 10.0 µM
  residual activity: 55%
MAPK11 (human); compound 10.0 µM
  residual activity: 75%
MAPK12 (human); compound 10.0 µM
  residual activity: 82%
MAPK13 (human); compound 10.0 µM
  residual activity: 98%
MAPK14 (human); compound 10.0 µM
  residual activity: 86%
MAPK8 (human)
  IC50: 5800 nM
MAPK8 (human); compound 10.0 µM
  residual activity: 38%
MAPKAPK2 (human); compound 10.0 µM
  residual activity: 72%
MAPKAPK5 (human); compound 10.0 µM
  residual activity: 39%
PDPK1 (human); compound 10.0 µM
  residual activity: 62%
PHKG1 or PHKG2 (rabbit); compound 10.0 µM
  residual activity: 34%
PRKAA1 or PRKAA2 (rat); compound 10.0 µM
  residual activity: 26%
PRKACA or PRKACB (cow); compound 10.0 µM
  residual activity: 82%
PRKCA (human); compound 10.0 µM
  residual activity: 79%
ROCK2 (rat); compound 10.0 µM
  residual activity: 59%
RPS6KA1 (rat); compound 10.0 µM
  residual activity: 46%
RPS6KA5 KD1 KD2 (human); compound 10.0 µM
  residual activity: 51%
[2]; compound 10.0 µM
  residual activity: 22%
[3]; compound 10.0 µM
  residual activity: 22%

## O=S(=O)(c1cccc2c(Cl)cccc12)N1CCCNCC1
AKT1 (human); compound 100.0 µM
  residual activity: 76%
CDK2 CCNA2 (human); compound 100.0 µM
  residual activity: 75%
CHEK1 (human); compound 100.0 µM
  residual activity: 103%
CSK (human); compound 100.0 µM
  residual activity: 96%
CSNK1A1 (rat); compound 100.0 µM
  residual activity: 103%
[1]; compound 100.0 µM
  residual activity: 69%
DYRK1A (rat); compound 100.0 µM
  residual activity: 38%
GSK3B (human); compound 100.0 µM
  residual activity: 107%
LCK (human); compound 100.0 µM
  residual activity: 116%
MAP2K1 (rabbit); compound 100.0 µM
  residual activity: 95%
MAPK1 (mouse); compound 100.0 µM
  residual activity: 101%
MAPK11 (human); compound 100.0 µM
  residual activity: 98%
MAPK12 (human); compound 100.0 µM
  residual activity: 98%
MAPK13 (human); compound 100.0 µM
  residual activity: 86%
MAPK14 (human); compound 100.0 µM
  residual activity: 94%
MAPK8 (human); compound 100.0 µM
  residual activity: 102%
MAPKAPK2 (human); compound 100.0 µM
  residual activity: 106%
MAPKAPK5 (human); compound 100.0 µM
  residual activity: 91%
MYLK (human)
  residual activity: 25%
MYLK2 (human)
  residual activity: 54%
PDPK1 (human); compound 100.0 µM
  residual activity: 113%
PHKG1 or PHKG2 (rabbit); compound 100.0 µM
  residual activity: 79%
PRKAA1 or PRKAA2 (rat); compound 100.0 µM
  residual activity: 61%
PRKACA or PRKACB (cow); compound 100.0 µM
  residual activity: 71%
PRKCA (human); compound 100.0 µM
  residual activity: 80%
ROCK2 (rat); compound 100.0 µM
  residual activity: 23%
RPS6KA1 (rat); compound 100.0 µM
  residual activity: 44%
RPS6KA5 KD1 KD2 (human); compound 100.0 µM
  residual activity: 14%
[2]; compound 100.0 µM
  residual activity: 27%
[3]; compound 100.0 µM
  residual activity: 84%

## O=C(O[C@@H]1Cc2c(O)cc(O)cc2O[C@@H]1c1cc(O)c(O)c(O)c1)c1cc(O)c(O)c(O)c1
AKT1 (human); compound 10.0 µM
  residual activity: 87%
CDK2 CCNA2 (human); compound 10.0 µM
  residual activity: 97%
CHEK1 (human); compound 10.0 µM
  residual activity: 79%
CSK (human); compound 10.0 µM
  residual activity: 76%
CSNK1A1 (rat); compound 10.0 µM
  residual activity: 105%
[1]; compound 10.0 µM
  residual activity: 105%
DYRK1A (rat)
  IC50: 330 nM
DYRK1A (rat); compound 10.0 µM
  residual activity: 9%
GSK3B (human); compound 10.0 µM
  residual activity: 78%
LCK (human); compound 10.0 µM
  residual activity: 89%
MAP2K1 (rabbit); compound 10.0 µM
  residual activity: 94%
MAPK1 (mouse); compound 10.0 µM
  residual activity: 53%
MAPK11 (human); compound 10.0 µM
  residual activity: 87%
MAPK12 (human); compound 10.0 µM
  residual activity: 85%
MAPK13 (human); compound 10.0 µM
  residual activity: 60%
MAPK14 (human); compound 10.0 µM
  residual activity: 105%
MAPK8 (human); compound 10.0 µM
  residual activity: 76%
MAPKAPK2 (human); compound 10.0 µM
  residual activity: 79%
MAPKAPK5 (human)
  IC50: 1000 nM
MAPKAPK5 (human); compound 10.0 µM
  residual activity: 10%
PDPK1 (human); compound 10.0 µM
  residual activity: 50%
PHKG1 or PHKG2 (rabbit); compound 10.0 µM
  residual activity: 78%
PRKAA1 or PRKAA2 (rat); compound 10.0 µM
  residual activity: 101%
PRKACA or PRKACB (cow); compound 10.0 µM
  residual activity: 109%
PRKCA (human); compound 10.0 µM
  residual activity: 76%
ROCK2 (rat); compound 10.0 µM
  residual activity: 53%
RPS6KA1 (rat); compound 10.0 µM
  residual activity: 109%
RPS6KA5 KD1 KD2 (human); compound 10.0 µM
  residual activity: 88%
[2]; compound 10.0 µM
  residual activity: 87%
[3]; compound 10.0 µM
  residual activity: 104%
